Test results from US7494980B2, “Antimicrobial peptide and methods of use thereof” (The United States of America as represented by the …, priority 2003, dated 2009).

Tested on: saliva bacteria (facultative anaerobic oral bacteria collected from saliva)
Test: In vitro killing of saliva bacteria
Format: cell-based
Settings: 0.5 h; chlorhexidine 0.12%, positive control; data not shown; read-out: log reduction in facultative anaerobic saliva organisms
Experimental: The killing assay of saliva bacteria was done according to procedures established by Helmerhorst et al. (1999). Unstimulated saliva was collected from four healthy individuals who had refrained from eating for at least 2 hours. The study was approved by the Institutional Review Board of the Walter Reed Army Institute of Research and informed consent and sample donation consent were obtained from all volunteers. Pooled saliva was initially spun at 500 r.p.m. in an Eppendorf centrifuge (model 5810R) for 10 min at 4° C. to remove epithelial cells and mucus. Saliva bacteria were collected by spinning the supernatant at 4000 r.p.m. for 15 min at 4° C. The pellet was washed three times in 10 mM potassium phosphate buffer (PPB) and suspended in the same buffer to give approximately 1.0×10^7 cells ml^−1. Bacterial suspension (250 μl) was mixed with 250 μl peptide to obtain final peptide concentrations of 12.5, 25, 50, 100 and 200 μg ml^−1. After incubation of the mixture at 37° C. for 30 min, cells were spun down to remove KSL, washed once in PBS having a pH of 7.4 and suspended in PBS before spiral-plating 50 μl of the treated and untreated cells in different dilutions on BAP. The negative control was exposed to buffer only. Saliva bacteria exposed to 0.12% aqueous chlorhexidine served as positive controls. […]

**Q.** `[H]/N=C(\N/C(=N/[H])NCCCCCCNC(=N)NC(=N)Nc1ccc(Cl)cc1)Nc1ccc(Cl)cc1` [chlorhexidine, reference compound] was tested. Which log reduction at 0.12 % did it give?
**A.** > 3
